Consider one compound from publication PMC6069857, “Effects of novel HDAC inhibitors on urothelial carcinoma cells” (Clinical Epigenetics, 2018).

In series [1] the target is HDAC9 (Homo sapiens, UniProt Q9UKV0). Put plainly: In vitro fluorescence-based HDAC inhibition assay (Reaction Biology). To be noted: read-out: IC50 HDAC9; experiment performed once.
Series [2] concerns the target HDAC11 (Homo sapiens, UniProt Q96DB2). Described as above. To be noted: read-out: IC50 HDAC11; experiment performed once.
Series [3] deals with HDAC2 (Homo sapiens, UniProt Q92769). Also noted: purchased Reaction Biology Corp. (Malvern, PA). To be noted: previously reported; given for HDAC1/2 together; cited from earlier work.
Series [4] has as its target T1, HDAC6 (Homo sapiens, UniProt Q9UBN7). Also noted: purchased Reaction Biology Corp. (Malvern, PA). To be noted: previously reported; cited from earlier work.
Series [5] relates to UC cell lines (VM-CUB1, UM-UC-3, 639-V). Put plainly: MTT viability assay, UC cell lines taken together. To be noted: across VM-CUB1, UM-UC-3, 639-V; MTT, 72 h. It is filed as cell-based, human. The procedure: Further experiments were performed in VM-CUB1 and UM-UC-3 cells overexpressing HDAC4 (see below). Standard UCCs were obtained from the DSMZ (Braunschweig, Germany) and Dr. H.B. Grossmann HB (Houston, USA). For comparison, we investigated the spontaneously immortalized normal human bladder cell line HBLAK (provided by CELLnTEC, Bern, Switzerland) and the immortalized human embryonic kidney cell line HEK-293 (provided by Dr. V. Kolb-Bachofen, Duesseldorf, Germany). Cells were cultured and treated in DMEM GlutaMAX-I (Gibco, Darmstadt, Germany; UCCs and HEK-293) supplemented with 10% fetal calf serum (Biochrom, Berlin, Germany), except for HBLAK cultured in CnT-Prime Epithelial Culture Medium (CELLnTEC, Bern, Switzerland; HBLAK), at 37 °C and 5% CO2. […]
For the determination of cellular mean cytotoxic concentration (CC50), UCCs, non-malignant control cells, and HDAC4-overexpressing clones were seeded in a 96-well format and treated once with a range of defined concentrations of the HDAC inhibitors. After 72 h, viability was quantified by NAD(P)H-dependent 3-(4,5-dimethylthiazol-2-yl)-2,5-diphenyltetrazolium bromide dye reduction assay (MTT, Sigma Aldrich, St. Louis, MO). […] For time-dependent proliferation experiments, viability of untreated or inhibitor-treated cells was measured after 24, 48, and 72 h.
A general note: Formazan colour is commonly taken as a measure of viable cells.

Series [6] deals with HDAC8 (Homo sapiens, UniProt Q9BY41). In words: In vitro fluorescence-based HDAC inhibition assay (Reaction Biology). To be noted: read-out: IC50 HDAC8; experiment performed once.
Series [7] concerns UCCs. In words: Western blot of acetylated α-tubulin and histones H3/H4. It is filed as cell-based, human. To be noted: 48 h, 19i 1 or 2 μM. On the procedure: Total protein extraction, purification of histones, and Western blot analysis were performed as previously described. Briefly, cells were incubated for 30 min on ice in RIPA-buffer (150 mM NaCl, 1% Triton X-100, 0.5% desoxycholate, 1% Nonidet P-40, 0.1% SDS, 1 mM EDTA, 50 mM TRIS (pH 7.6)) containing 10 μl/ml protease inhibitor cocktail (#P-8340, Sigma Aldrich, St. Louis, MO). Histones were extracted for detection of histone H3 and H4 acetylation by a modified published protocol employing sulfuric acid extraction and TCA-precipitation. Concentrations of total protein and histones were determined by BCA protein assay (Thermo Fisher Scientific, Carlsbad, CA). Subsequently, total cell proteins (15 μg) or extracted histones (2 μg) were separated by SDS-PAGE (total proteins 10–12% gels, histones 15% gels), transferred to PVDF membranes (Merck Millipore, Berlin, Germany), and were incubated with primary antibodies (at RT for 1 h or 4 °C overnight, see Additional file 3: Table S2) following blocking with 5% non-fat milk or BSA (bovine serum albumin) in TBST (150 mM NaCl, 10 mM TRIS, pH 7.4 and 0.1% Tween-20). For signal detection, membranes were incubated with a suitable horseradish peroxidase-conjugated secondary antibody (see Additional file 2: Table S1) at RT for 1 h and signals were visualized by SuperSignal™ West Femto (Thermo Fisher Scientific, Carlsbad, CA) and WesternBright Quantum kit (Biozym, Hessisch Oldendorf, Germany).

Series [8] addresses HDAC10 (Homo sapiens, UniProt Q969S8). In words: In vitro fluorescence-based HDAC inhibition assay (Reaction Biology). To be noted: read-out: IC50 HDAC10; experiment performed once.
Series [9] addresses T1, HDAC6. Described as above. To be noted: read-out: IC50 HDAC6; experiment performed once.
Series [10] deals with UCCs VM-CUB1, UM-UC-3, and 639-V. To be noted: 19i 2 μM, 24 and 48 h. From the text:
Caspase activity after inhibitor treatment was quantified by the Caspase-Glo 3/7 assay and normalized to cell viability measured by CellTiter-Glo® reagent (Promega, Mannheim, Germany) as previously described. Briefly, following exposure to inhibitors, defined aliquots of trypsinized cells were transferred to 96-well plates for viability and caspase-3/7 measurements according to the manufacturer’s protocol.

T1 sequence (Q9UBN7 whole entry): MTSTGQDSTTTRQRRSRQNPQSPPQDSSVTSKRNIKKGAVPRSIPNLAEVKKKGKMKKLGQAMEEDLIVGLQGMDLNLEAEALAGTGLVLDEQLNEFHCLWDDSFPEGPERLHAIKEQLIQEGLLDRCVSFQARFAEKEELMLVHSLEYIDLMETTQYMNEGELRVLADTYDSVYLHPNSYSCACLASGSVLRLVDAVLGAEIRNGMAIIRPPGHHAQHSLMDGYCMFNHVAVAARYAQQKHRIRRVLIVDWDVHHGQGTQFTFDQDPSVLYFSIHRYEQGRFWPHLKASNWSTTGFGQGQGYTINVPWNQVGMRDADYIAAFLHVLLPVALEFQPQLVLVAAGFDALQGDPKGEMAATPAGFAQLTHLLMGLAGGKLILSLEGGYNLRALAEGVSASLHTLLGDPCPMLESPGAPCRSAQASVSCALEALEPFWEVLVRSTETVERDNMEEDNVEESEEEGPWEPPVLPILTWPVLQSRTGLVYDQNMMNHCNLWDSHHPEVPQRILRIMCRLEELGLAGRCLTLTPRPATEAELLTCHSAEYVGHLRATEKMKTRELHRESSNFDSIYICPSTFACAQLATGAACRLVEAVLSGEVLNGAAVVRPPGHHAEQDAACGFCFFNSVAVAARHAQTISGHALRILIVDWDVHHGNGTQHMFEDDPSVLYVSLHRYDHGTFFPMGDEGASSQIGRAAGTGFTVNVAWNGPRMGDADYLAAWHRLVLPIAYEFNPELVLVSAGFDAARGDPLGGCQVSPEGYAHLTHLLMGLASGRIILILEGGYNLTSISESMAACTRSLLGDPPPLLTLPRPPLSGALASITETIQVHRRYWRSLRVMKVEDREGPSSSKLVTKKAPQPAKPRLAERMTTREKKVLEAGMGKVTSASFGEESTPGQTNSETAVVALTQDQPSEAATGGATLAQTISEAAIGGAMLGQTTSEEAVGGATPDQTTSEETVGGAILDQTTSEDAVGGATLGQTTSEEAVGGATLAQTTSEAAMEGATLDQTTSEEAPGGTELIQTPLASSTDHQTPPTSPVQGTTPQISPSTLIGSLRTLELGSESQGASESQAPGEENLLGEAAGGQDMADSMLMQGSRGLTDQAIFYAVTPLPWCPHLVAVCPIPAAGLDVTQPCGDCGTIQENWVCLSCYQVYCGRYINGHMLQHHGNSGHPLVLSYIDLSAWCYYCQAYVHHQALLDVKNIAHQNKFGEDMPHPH
Sequence of HDAC8 (Q9BY41 whole entry): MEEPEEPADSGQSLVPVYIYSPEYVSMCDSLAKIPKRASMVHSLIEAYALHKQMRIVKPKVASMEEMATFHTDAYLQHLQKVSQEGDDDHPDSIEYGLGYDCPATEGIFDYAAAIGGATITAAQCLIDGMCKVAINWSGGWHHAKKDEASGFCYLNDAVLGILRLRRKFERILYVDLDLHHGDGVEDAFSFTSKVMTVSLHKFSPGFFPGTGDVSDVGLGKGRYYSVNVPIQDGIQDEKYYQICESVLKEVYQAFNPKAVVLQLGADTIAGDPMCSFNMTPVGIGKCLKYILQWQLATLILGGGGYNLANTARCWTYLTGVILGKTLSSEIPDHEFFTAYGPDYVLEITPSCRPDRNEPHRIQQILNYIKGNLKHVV
Sequence of HDAC2 (Q92769 whole entry): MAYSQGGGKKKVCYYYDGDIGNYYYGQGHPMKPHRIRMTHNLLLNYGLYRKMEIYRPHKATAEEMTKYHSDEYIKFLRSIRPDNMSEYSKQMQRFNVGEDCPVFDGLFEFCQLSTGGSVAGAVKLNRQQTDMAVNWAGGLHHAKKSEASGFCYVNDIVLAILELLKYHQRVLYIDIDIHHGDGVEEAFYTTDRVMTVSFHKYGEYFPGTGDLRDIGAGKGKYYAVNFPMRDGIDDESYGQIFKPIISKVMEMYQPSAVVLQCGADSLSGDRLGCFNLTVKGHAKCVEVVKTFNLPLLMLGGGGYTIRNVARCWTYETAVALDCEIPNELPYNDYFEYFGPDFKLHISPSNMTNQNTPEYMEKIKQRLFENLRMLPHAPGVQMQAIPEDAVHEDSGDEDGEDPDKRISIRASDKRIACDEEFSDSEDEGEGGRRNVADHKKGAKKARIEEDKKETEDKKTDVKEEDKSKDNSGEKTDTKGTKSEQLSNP
Sequence of HDAC9 (Q9UKV0 whole entry): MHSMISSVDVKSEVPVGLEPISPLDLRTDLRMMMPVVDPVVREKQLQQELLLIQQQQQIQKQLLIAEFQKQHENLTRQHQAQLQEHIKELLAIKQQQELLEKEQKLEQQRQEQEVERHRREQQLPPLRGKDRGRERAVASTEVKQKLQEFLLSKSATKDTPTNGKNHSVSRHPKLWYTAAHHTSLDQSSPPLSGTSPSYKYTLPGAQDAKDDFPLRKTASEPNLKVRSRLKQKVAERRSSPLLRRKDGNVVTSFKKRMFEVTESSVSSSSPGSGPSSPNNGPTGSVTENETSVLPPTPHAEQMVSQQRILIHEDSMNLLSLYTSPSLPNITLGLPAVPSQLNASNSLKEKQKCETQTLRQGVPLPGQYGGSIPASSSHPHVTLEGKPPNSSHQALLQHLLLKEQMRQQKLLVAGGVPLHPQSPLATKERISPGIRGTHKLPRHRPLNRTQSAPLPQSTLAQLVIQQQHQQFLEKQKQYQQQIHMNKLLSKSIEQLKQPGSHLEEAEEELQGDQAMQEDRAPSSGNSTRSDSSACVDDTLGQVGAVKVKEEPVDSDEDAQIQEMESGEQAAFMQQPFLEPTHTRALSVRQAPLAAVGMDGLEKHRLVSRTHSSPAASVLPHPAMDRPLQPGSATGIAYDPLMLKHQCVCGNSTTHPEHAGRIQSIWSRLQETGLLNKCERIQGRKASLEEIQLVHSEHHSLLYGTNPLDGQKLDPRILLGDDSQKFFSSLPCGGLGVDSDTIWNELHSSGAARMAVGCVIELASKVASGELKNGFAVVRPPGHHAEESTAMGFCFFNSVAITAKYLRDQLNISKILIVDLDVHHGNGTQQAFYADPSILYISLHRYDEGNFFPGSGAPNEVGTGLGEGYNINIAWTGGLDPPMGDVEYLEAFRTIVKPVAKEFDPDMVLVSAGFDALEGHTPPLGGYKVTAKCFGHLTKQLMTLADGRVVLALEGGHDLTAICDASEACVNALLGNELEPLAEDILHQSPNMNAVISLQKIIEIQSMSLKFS
Sequence of HDAC11 (Q96DB2 whole entry): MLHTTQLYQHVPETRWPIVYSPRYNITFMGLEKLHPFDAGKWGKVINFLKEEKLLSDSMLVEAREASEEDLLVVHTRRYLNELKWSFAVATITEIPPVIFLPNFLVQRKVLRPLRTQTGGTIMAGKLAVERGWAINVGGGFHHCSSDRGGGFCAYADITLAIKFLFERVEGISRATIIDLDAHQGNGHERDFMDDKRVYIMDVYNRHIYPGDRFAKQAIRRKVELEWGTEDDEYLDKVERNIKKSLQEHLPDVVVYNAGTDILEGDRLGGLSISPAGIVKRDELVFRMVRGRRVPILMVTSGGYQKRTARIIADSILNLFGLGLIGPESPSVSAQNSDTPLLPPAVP
Sequence of HDAC10 (Q969S8 whole entry): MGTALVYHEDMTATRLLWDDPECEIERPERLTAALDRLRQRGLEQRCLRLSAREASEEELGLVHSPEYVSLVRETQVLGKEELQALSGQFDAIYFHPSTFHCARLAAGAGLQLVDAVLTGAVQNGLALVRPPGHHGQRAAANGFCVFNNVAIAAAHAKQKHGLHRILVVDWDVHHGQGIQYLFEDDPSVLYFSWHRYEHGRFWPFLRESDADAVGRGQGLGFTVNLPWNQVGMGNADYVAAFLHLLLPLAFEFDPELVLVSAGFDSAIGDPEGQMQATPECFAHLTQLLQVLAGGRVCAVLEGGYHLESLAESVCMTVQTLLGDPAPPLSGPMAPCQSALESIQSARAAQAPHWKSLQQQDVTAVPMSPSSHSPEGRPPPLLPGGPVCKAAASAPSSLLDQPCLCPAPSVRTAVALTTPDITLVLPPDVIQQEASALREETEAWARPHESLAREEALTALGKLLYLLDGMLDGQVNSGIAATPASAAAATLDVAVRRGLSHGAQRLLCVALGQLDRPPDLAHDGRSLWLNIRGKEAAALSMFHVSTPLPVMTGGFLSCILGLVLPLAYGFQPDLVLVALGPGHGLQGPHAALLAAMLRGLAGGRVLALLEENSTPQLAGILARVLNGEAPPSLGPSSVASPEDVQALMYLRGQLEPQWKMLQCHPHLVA

As for `Cc1cc(C)cc(C(=O)NOCCCCCC(=O)NO)c1` [19i], the IC50 (in general, the midpoint of a concentration-inhibition curve) worked out at 198000 nM in series [1]; 109000 nM in series [2]; 2840 nM in series [6]; 491 nM in series [8]; 32 nM in [9]. Moreover, in [3], the “in vitro IC50 HDAC2” value was “sub-micromolar”. Moreover, in [4], the “in vitro IC50 HDAC6” value was “sub-micromolar”. The CC50 – broadly, the concentration that lowers cell viability or growth by half – in [5] is ~1000 nM. In addition, the “global acetylation of histones H3 and H4” value in [7] was “enhanced”. Also, the “acetylation of α-tubulin” value in series [7] (SAHA 2.5 μM) is listed as “strongly induced”. Moreover, the “caspase 3/7 activity” value in series [10] was “significant, albeit moderately increased”.
